This is an account of results in publication PMC11791975, “Highly Sensitive In Vivo Imaging of Bacterial Infections with a Hydrophilicity‐Switching, Self‐Immobilizing, Near‐Infrared Fluorogenic β‐Lactamase Probe Enriched within Bacteria” (Advanced Science, 2024).

For orientation: IC50 means the concentration that inhibits the measured activity by half.

A value given as a limit tells only on which side of the number the result lay.

Assay [1] has as its target T1, New Delhi metallo β lactamase-1 (NDM-1 bla) (Klebsiella pneumoniae, UniProt C7C422).
T1 construct: gene blaNDM-1
As to the kind of experiment: in vitro β-lactamase inhibition assay (IC50, Figure S29; also cites ref […]). The assay is classed as biochemical.

For assay [2], the target named is TEM-1 β-lactamase (TEM-1 bla) (Escherichia coli, UniProt P62593). Kind of assay: biochemical. Also noted: beta-lactamase inhibition, fluorogenic substrate CDC-1 hydrolysis, initial velocity, 10 min preincubation. The note with it: read-out: IC50 (μM) ebselen TEM-1. As to the method:
(§1) 36 and imaged with an Odyssey SA near-infrared two-color laser imaging system, followed by staining with Coomassie brilliant blue. Assay for IC50 of β-Lactamase Inhibitor The IC50 was determined following the reported protocol with minor modifications. […] The initial velocity (V0) was calculated using the linear portions of the curves. Each experiment was triplicated. The IC50 was obtained by fitting a dose-response curve using Graph Pad Prism 7 software.

Assay [3] concerns the target T1, New Delhi metallo β lactamase-1 (NDM-1 bla). As to the kind of experiment: biochemical. Also noted: beta-lactamase inhibition, fluorogenic substrate CDC-1 hydrolysis, initial velocity, 10 min preincubation. The protocol:
as §1

T1 sequence (C7C422 29-270 limits assumed): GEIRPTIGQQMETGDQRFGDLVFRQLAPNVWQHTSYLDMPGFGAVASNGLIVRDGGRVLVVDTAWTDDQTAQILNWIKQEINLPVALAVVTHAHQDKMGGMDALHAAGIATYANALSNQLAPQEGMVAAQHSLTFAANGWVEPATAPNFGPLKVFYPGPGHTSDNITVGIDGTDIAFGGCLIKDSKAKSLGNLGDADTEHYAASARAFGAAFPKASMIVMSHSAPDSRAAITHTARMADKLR
Chain of TEM-1 β-lactamase (TEM-1 bla) (P62593 24-286 limits assumed): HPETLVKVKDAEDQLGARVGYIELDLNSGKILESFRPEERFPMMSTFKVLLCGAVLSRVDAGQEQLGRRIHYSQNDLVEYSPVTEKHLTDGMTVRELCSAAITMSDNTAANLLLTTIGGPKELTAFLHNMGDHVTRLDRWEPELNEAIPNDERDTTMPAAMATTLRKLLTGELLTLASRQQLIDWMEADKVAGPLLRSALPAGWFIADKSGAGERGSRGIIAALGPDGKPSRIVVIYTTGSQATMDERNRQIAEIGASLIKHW

On to `O=c1c2ccccc2[se]n1-c1ccccc1` [ebselen], for which the IC50 is 0.508 µM in assay [1] and more than 25 µM in assay [2].
In assay [3], `NC(=O)[C@@H]1CC[C@@H]2CN1C(=O)N2OS(=O)(=O)O` [avibactam] gave an IC50 of more than 25 µM.
